The target in data set [1] is Albumin (Homo sapiens, UniProt P02768). The data set can be described thus: Binding affinity to human albumin. It is filed as ADME. The following applies: isolated protein.
Data set [2] concerns Homo sapiens. The data set can be described thus: Half life in sc dosed human. It is filed as ADME, organism-based. As to conditions: in vivo.

Some results are limits rather than exact numbers.

Chain of Albumin (P02768 whole entry): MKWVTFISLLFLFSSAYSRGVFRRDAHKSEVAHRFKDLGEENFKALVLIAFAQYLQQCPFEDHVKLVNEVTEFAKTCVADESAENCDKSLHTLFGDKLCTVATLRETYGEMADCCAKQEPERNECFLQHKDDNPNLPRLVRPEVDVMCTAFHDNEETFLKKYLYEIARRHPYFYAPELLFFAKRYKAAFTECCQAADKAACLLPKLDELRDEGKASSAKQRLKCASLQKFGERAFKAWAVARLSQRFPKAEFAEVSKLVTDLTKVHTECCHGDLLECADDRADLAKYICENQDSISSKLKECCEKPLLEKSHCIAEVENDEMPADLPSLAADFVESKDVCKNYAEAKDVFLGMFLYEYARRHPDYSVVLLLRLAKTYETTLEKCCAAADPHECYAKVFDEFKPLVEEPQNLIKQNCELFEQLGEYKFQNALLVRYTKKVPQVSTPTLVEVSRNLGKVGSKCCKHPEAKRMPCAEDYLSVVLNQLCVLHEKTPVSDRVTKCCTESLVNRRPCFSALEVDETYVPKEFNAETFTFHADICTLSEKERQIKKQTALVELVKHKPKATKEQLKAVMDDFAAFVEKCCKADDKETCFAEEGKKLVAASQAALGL

Turning to `NC(=O)[C@H](CCCCNC(=O)CSC[C@H](N)C(=O)O)NC(=O)COCCOCCNC(=O)CC[C@H](NC(=O)CC[C@H](NC(=O)COCCOCCNC(=O)CCCS(=O)(=O)NC(=O)CCCCCCCCCCCCCCc1nn[nH]n1)C(=O)O)C(=O)O`, the Activity in data set [1] is > 99%. SEMAGLUTIDE showed a t1/2 in data set [2] of 1 weeks.

(Values after ChEMBL document CHEMBL4196109, “Chemical Strategies for Half-Life Extension of Biopharmaceuticals: Lipidation and Its Alternatives” (ACS Med Chem Lett, 2018).)
